Legend:
Settings in all cases: 72 h
[1] = system: BT-474
Summary of the method: (§1)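 In this assay, breast cancer cell lines spent 72 h with compound at 5 concentrations in 10-fold steps over a compound-specific 10,000-fold range. The first readout was cell death by CellTox Green fluorescence, and the second was viability by CellTiter-Glo luminescence, each normalised per plate to 0.1 % DMSO and a positive kill control. EC50 came from the dose-response curves, censored at the top concentration.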

[2] = system: BT-549
Summary of the method: as §1

[3] = system: CAL-148
Summary of the method: as §1

[4] = system: CAL-51
Summary of the method: as §1

[5] = system: DU-4475
Summary of the method: as §1

[6] = system: HCC1143
Summary of the method: as §1

[7] = system: HDQ-P1
Summary of the method: as §1

[8] = system: Hs578T
Summary of the method: as §1

[9] = system: MDA-MB-436
Summary of the method: as §1

[10] = system: SK-BR-3
Summary of the method: as §1

[11] = system: CAL-85-1
Summary of the method: (§2)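 Each 384-well plate was pre-loaded with compound dissolved in 5 µl medium, received breast cancer cells in 20 µl suspension, and was incubated 72 h. A 2.5 µl addition of CellTiter-Blue for 2 h at 37 °C was followed by a fluorescence read at 560/590 nm. Data were normalised per plate to vehicle and a positive kill control and checked by Z'-factor. EC50 was fitted from the percent-inhibition dose-response curve, censored at the highest concentration, excluding rows with a drug sensitivity score of zero.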

[12] = system: DU-4475; remark: listed apart in the source
Summary of the method: as §2

[13] = system: MDA-MB-453
Summary of the method: as §2

[14] = system: HCC1143; remark: listed apart in the source
Summary of the method: as §2

[15] = system: HCC1599
Summary of the method: as §2

[16] = system: Hs578T; remark: listed apart in the source
Summary of the method: as §2

[17] = system: MDA-MB-231
Summary of the method: as §2

[18] = system: MDA-MB-468
Summary of the method: as §2

[19] = system: CAL-148; remark: listed apart in the source
Description: (§3)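 Drug sensitivity and resistance testing (DSRT) of breast cancer cell lines in 384-well plates, 5 concentrations in 10-fold dilutions over a compound-specific 10,000-fold range. After 72 h, cytotoxicity was read by CellTox Green fluorescence and viability by CellTiter-Glo luminescence (multiplexed), normalised to DMSO and benzethonium chloride controls. EC50 is the inflection point of the fitted dose-response curve (bottom asymptote free, so it can be relative for partial curves) and is censored at the highest tested concentration. Rows with DSS 0 (no meaningful response) were excluded.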

[20] = system: CAL-51; remark: listed apart in the source
Description: as §3

[21] = system: CAL-85-1; remark: listed apart in the source
Summary of the method: as §1

[22] = system: HCC1599; remark: listed apart in the source
Summary of the method: as §1

[23] = system: HCC1937
Summary of the method: as §1

[24] = system: MCF-10A
Summary of the method: as §1

[25] = system: MDA-MB-231; remark: listed apart in the source
Summary of the method: as §1

[26] = system: MDA-MB-453; remark: listed apart in the source
Summary of the method: as §1

[27] = system: MFM-223
Summary of the method: as §1

[28] = system: HDQ-P1; remark: listed apart in the source
Summary of the method: as §2

[29] = system: BT-474; remark: listed apart in the source
Summary of the method: as §2

[30] = system: MFM-223; remark: listed apart in the source
Summary of the method: as §2

[31] = system: BT-474; remark: listed apart in the source
Description: as §3

[32] = system: BT-549; remark: listed apart in the source
Description: as §3

[33] = system: CAL-85-1; remark: listed apart in the source
Description: as §3

[34] = system: HCC1143; remark: listed apart in the source
Description: as §3

[35] = system: Hs578T; remark: listed apart in the source
Description: as §3

[36] = system: MCF-10A; remark: listed apart in the source
Description: as §3

[37] = system: MDA-MB-231; remark: listed apart in the source
Description: as §3

[38] = system: MDA-MB-468; remark: listed apart in the source
Description: as §3

[39] = system: MFM-223; remark: listed apart in the source
Description: as §3

Nc1ccn([C@@H]2O[C@H](CO)[C@@H](O)[C@@H]2O)c(=O)n1 [Cytarabine]
EC50, CellTiter-Glo [1]: > 10000 nM | EC50, CellTiter-Glo [2]: 305 nM | EC50, CellTiter-Glo [3]: 200 nM | EC50, CellTiter-Glo [4]: 544 nM | EC50, CellTiter-Glo [5]: 339 nM | EC50, CellTiter-Glo [6]: 1270 nM | EC50, CellTiter-Glo [7]: 2890 nM | EC50, CellTiter-Glo [8]: 462 nM | EC50, CellTiter-Glo [9]: 364 nM | EC50, CellTiter-Glo [10]: 156 nM | EC50, CellTiter-Blue viability [11]: 1190 nM | EC50, CellTiter-Blue viability [12]: 450 nM | EC50, CellTiter-Blue viability [13]: 396 nM | EC50, CellTiter-Blue viability [14]: 213 nM | EC50, CellTiter-Blue viability [15]: 556 nM | EC50, CellTiter-Blue viability [16]: 17.3 nM | EC50, CellTiter-Blue viability [17]: 183 nM | EC50, CellTiter-Blue viability [18]: 483 nM | EC50, CellTox Green [19]: 61.6 nM | EC50, CellTox Green [20]: 315 nM

Cc1c2oc3c(C)ccc(C(=O)N[C@@H]4C(=O)N[C@H](C(C)C)C(=O)N5CCC[C@H]5C(=O)N(C)CC(=O)N(C)[C@@H](C(C)C)C(=O)O[C@@H]4C)c3nc-2c(C(=O)N[C@@H]2C(=O)N[C@H](C(C)C)C(=O)N3CCC[C@H]3C(=O)N(C)CC(=O)N(C)[C@@H](C(C)C)C(=O)O[C@@H]2C)c(N)c1=O [Dactinomycin]
EC50, CellTiter-Glo [1]: 12 nM | EC50, CellTiter-Glo [2]: 1.94 nM | EC50, CellTiter-Glo [3]: 1.56 nM | EC50, CellTiter-Glo [4]: 5.11 nM | EC50, CellTiter-Glo [21]: 9.71 nM | EC50, CellTiter-Glo [5]: 2.98 nM | EC50, CellTiter-Glo [6]: 8.69 nM | EC50, CellTiter-Glo [22]: 35.9 nM | EC50, CellTiter-Glo [23]: 4.61 nM | EC50, CellTiter-Glo [7]: 2.14 nM | EC50, CellTiter-Glo [8]: 11.1 nM | EC50, CellTiter-Glo [24]: 8.54 nM | EC50, CellTiter-Glo [25]: 12.7 nM | EC50, CellTiter-Glo [9]: 7.89 nM | EC50, CellTiter-Glo [26]: 18.4 nM | EC50, CellTiter-Glo [27]: 35.9 nM | EC50, CellTiter-Glo [10]: 14.1 nM | EC50, CellTiter-Blue viability [11]: 2.03 nM | EC50, CellTiter-Blue viability [12]: 0.72 nM | EC50, CellTiter-Blue viability [28]: 1.67 nM | EC50, CellTiter-Blue viability [13]: 1.9 nM | EC50, CellTiter-Blue viability [29]: 16.1 nM | EC50, CellTiter-Blue viability [14]: 1.52 nM | EC50, CellTiter-Blue viability [15]: 8.18 nM | EC50, CellTiter-Blue viability [16]: 0.99 nM | EC50, CellTiter-Blue viability [17]: 1.35 nM | EC50, CellTiter-Blue viability [18]: 1.54 nM | EC50, CellTiter-Blue viability [30]: 14.8 nM | EC50, CellTox Green [31]: 354 nM | EC50, CellTox Green [32]: 5.04 nM | EC50, CellTox Green [19]: 1.44 nM | EC50, CellTox Green [20]: 2.1 nM | EC50, CellTox Green [33]: 22.2 nM | EC50, CellTox Green [34]: 167 nM | EC50, CellTox Green [35]: 30.5 nM | EC50, CellTox Green [36]: 27 nM | EC50, CellTox Green [37]: 2.54 nM | EC50, CellTox Green [38]: 43.6 nM | EC50, CellTox Green [39]: 93.9 nM

COc1cccc2c1C(=O)c1c(O)c3c(c(O)c1C2=O)C[C@@](O)(C(=O)CO)C[C@@H]3O[C@H]1C[C@H](N)[C@H](O)[C@H](C)O1 [Doxorubicin]
EC50, CellTiter-Glo [1]: 167 nM | EC50, CellTiter-Glo [2]: 154 nM | EC50, CellTiter-Glo [3]: 187 nM | EC50, CellTiter-Glo [4]: 41.5 nM | EC50, CellTiter-Glo [21]: 547 nM | EC50, CellTiter-Glo [5]: 177 nM | EC50, CellTiter-Glo [6]: 942 nM | EC50, CellTiter-Glo [22]: 597 nM | EC50, CellTiter-Glo [7]: 465 nM | EC50, CellTiter-Glo [8]: 463 nM | EC50, CellTiter-Glo [24]: 856 nM | EC50, CellTiter-Glo [25]: 311 nM | EC50, CellTiter-Glo [9]: 449 nM | EC50, CellTiter-Glo [26]: 607 nM | EC50, CellTiter-Glo [10]: 263 nM | EC50, CellTiter-Blue viability [11]: 279 nM | EC50, CellTiter-Blue viability [12]: 71.8 nM | EC50, CellTiter-Blue viability [28]: 259 nM | EC50, CellTiter-Blue viability [13]: 409 nM | EC50, CellTiter-Blue viability [29]: 522 nM | EC50, CellTiter-Blue viability [14]: 132 nM | EC50, CellTiter-Blue viability [15]: 83.5 nM | EC50, CellTiter-Blue viability [16]: 147 nM | EC50, CellTiter-Blue viability [17]: 187 nM | EC50, CellTiter-Blue viability [18]: 150 nM | EC50, CellTiter-Blue viability [30]: 558 nM | EC50, CellTox Green [19]: 92.4 nM | EC50, CellTox Green [20]: 68 nM | EC50, CellTox Green [33]: 440 nM | EC50, CellTox Green [38]: 100 nM

Reference: the supplement of paper PMC4862054
